Values after ≈ are worked out from the molar mass of the structure shown. Read-outs that look alike come from different tables or passages of the source.
What was measured:
[1] = tested on: axenic amastigotes of L. amazonensis (strain MHOM/BR/76/LTB-012); test: microbe, parasite or virus in culture; details: Leishmania amazonensis
3T3 cells = test: Cell growth inhibition bioassay (sulforhodamine B); type: cell-based, mouse; details: 48 h, SRB; for GI50: Mus musculus, NIH3T3, read-out: GI50 in indicated cell line: 3T3
Procedure: (§1) The cytotoxicity of compounds was assayed as follows. […] Appropriate solvent controls were tested for comparison. The percent inhibition of cell growth relative to the control was evaluated colorimetrically using a sulforhodamine B dye by comparison to the control. The calorimetric procedure followed that published in Skehan et al., J. Nat. Cancer Inst., […], pp. 1107-1112 (1990) and Boyd & Paull, Drug Dev. Res., Vol. 34, pp. 91-109 (1995). […] The cell lines are: 3T3 cells are BALB/3T3 clone A31 embryonic mouse fibroblast cells; H460 cells are human large cell lung cancer cells; DU145 cells are human prostate carcinoma cells; MCF-7 cells are human breast adenocarcinoma cells; M-14 cells are human melanoma cells; HT-29 cells are human colon adenocarcinoma cells; PC3 cells are human prostate adenocarcinoma cells; K562 cells are human chronic myelogenous leukemia cells; and VERO cells are African Green Monkey kidney epithelial cells.

DU145 cells = test: Cell growth inhibition bioassay (sulforhodamine B); type: cell-based, human; details: 48 h, SRB; for GI50: Homo sapiens, DU-145, read-out: GI50 in indicated cell line: DU145
Procedure: as §1

H460 cells = test: Cell growth inhibition bioassay (sulforhodamine B); type: cell-based, human; details: 48 h, SRB; for GI50: Homo sapiens, NCI-H460, read-out: GI50 in indicated cell line: H460
Procedure: as §1

HT-29 cells = test: Cell growth inhibition bioassay (sulforhodamine B); type: cell-based, human; details: 48 h, SRB; for GI50: Homo sapiens, HT-29, read-out: GI50 in indicated cell line: HT-29
Procedure: as §1

K562 cells = test: Cell growth inhibition bioassay (sulforhodamine B); type: cell-based, human; details: 48 h, SRB; for GI50: Homo sapiens, K562, read-out: GI50 in indicated cell line: K562
Procedure: as §1

M-14 cells = test: Cell growth inhibition bioassay (sulforhodamine B); type: cell-based, human; details: 48 h, SRB; for GI50: Homo sapiens, M14, read-out: GI50 in indicated cell line: M-14
Procedure: as §1

MCF-7 cells = test: Cell growth inhibition bioassay (sulforhodamine B); type: cell-based, human; details: 48 h, SRB; for GI50: Homo sapiens, MCF7, read-out: GI50 in indicated cell line: MCF-7
Procedure: as §1

VERO cells = test: Cell growth inhibition bioassay (sulforhodamine B); type: cell-based, African Green Monkey; details: 48 h, SRB; for GI50: Chlorocebus sabaeus, Vero, read-out: GI50 in indicated cell line: VERO
Procedure: as §1

M. tuberculosis H37Rv = test: Conventional aerobic (MABA) culture assay, luminescence MIC; type: cell-based, Mycobacterium tuberculosis; details: aerobic, 7 days, H37Rv; for MIC: Mycobacterium tuberculosis, 168 h
[2] = Toxicity to peritoneal macrophages (Trypan Blue count); type: cell-based, BALB/C mouse; details: BALB/C, mouse, Cytotoxicity Macrophages IC50
Procedure: (§2) Peritoneal macrophages were prepared as follows. Non-inflammatory macrophages (10^6) were collected from each BALB/C mouse. The cells adhered at 37° C. after 2 h under 5% CO2 in a CO2 incubator. The plates were then rinsed two to three times with 0.5 mL of RPMI+buffer MOPS without fetal calf serum to eliminate non-adhering cells. The supernatant on the plates was replaced by fresh medium (RPMI+glutamine+FCS+antibiotics), 0.5 mL of medium per well. To determine the toxicity of the compounds to macrophages, dilutions of compounds were added on a part of the macrophages prepared above. […] The medium was then removed and 1 μL of sterile Trypan Blue was added. Cover glasses N° 1 were left where cells were plated and then the number of macrophages in a microscope was determined with a haemocytometer. All experiments were performed in triplicate.

[3] = tested on: axenic amastigotes of L. amazonensis (strain MHOM/BR/76/LTB-012); details: Table 8b; for IC50: read-out: L. amazonensis IC50
peritoneal macrophages = test: Toxicity to peritoneal macrophages (Trypan Blue count); type: cell-based, BALB/C mouse
Procedure: as §2

[4] = tested on: Trypanosoma cruzi (Tulahuen C4); test: In vitro anti-T. cruzi activity (β-galactosidase CPRG colorimetric assay in VERO monolayer); type: cell-based; details: for inhibition at 10 µg/mL / IC50: Trypanosoma cruzi, TULAHUEN, Vero; for inhibition at 10 µg/mL: 120 h, 10 μg/mL of each compound, 120 hours, read-out: T. cruzi Inhib. (%); for IC50: Table 3, read-out: IC50 T. cruzi
L. amazonensis = details: intralesional, compounds 5 mg/kg/day; for Mean lesion size (mm) / Mean parasite quantification (per 10^6) in lesion per mg (±SD) / Mean lesion wt (mg) (±SD) / % Variation of lesion wt / % reduction of parasite burden in the lesion: Glucantime 33 mg Sb(v)/kg/day; for Mean lesion wt (mg) (±SD): BALB/c mice n=10; for % Variation of lesion wt / % reduction of parasite burden in the lesion: vs control
[5] = 72 h, read-out: IC50 L. amazonensis
[6] = Mus musculus, Peritoneal macrophage, 48 h, Table 7, read-out: IC50 Macrophage

COc1cc(O)cc(O)c1C(=O)/C=C/C=C/c1ccccc1 [Compound I-39, (2E,4E)-1-(2,4-Dihydroxy-6-methoxyphenyl)-5-phenyl-2,4-pentadien-1-one]
IC50 [1, 5]: 52.6 µM

COc1cc(/C=C/C(=O)c2c(O)cc(O)cc2OC)ccc1O [Compound I-37, (2E)-1-(2,4-Dihydroxy-6-methoxyphenyl)-3-(3-methoxy-4-hydroxyphenyl)-2-propen-1-one]
IC50 [1, 5]: 14.9 µM

c1ccc(C(=NNc2ncnc3sc4c(c23)CCCC4)c2ccccc2)cc1 [II-49]
GI50 (3T3 cells): > 62.5 µg/mL
GI50 (DU145 cells): > 62.5 µg/mL
GI50 (H460 cells): > 62.5 µg/mL
GI50 (HT-29 cells): > 62.5 µg/mL
GI50 (K562 cells): > 62.5 µg/mL
GI50 (M-14 cells): > 62.5 µg/mL
GI50 (MCF-7 cells): > 62.5 µg/mL
GI50 (VERO cells): > 62.5 µg/mL
MIC (M. tuberculosis H37Rv): > 100 µg/mL
IC50 at 48 h [2]: 59.8 µM
Selectivity Index [3]: 0.9
IC50 ([1]; read-out: L. amazonensis IC50): 70.1 µM

COc1cccc(/C=C/C(=O)c2c(O)cc(O)cc2OC)c1 [Compound I-31, (2E)-1-(2,4-Dihydroxy-6-methoxyphenyl)-3-(3-methoxyphenyl)-2-propen-1-one]
IC50 (peritoneal macrophages; [6]): 17.6 µM
IC50 [1, 5]: 12 µM

COc1cc(O)cc(O)c1C(=O)/C=C/c1ccc(Cl)cc1 [Compound I-33, (2E)-3-(4-Chlorophenyl)-1-(2,4-dihydroxy-6-methoxyphenyl)-2-propen-1-one]
IC50 (peritoneal macrophages; [6]): 19 µM
IC50 [1, 5]: 11.2 µM

C=CCOc1cc(OC)c(C(=O)/C=C/C=C/c2ccccc2)c(OCC=C)c1 [Compound I-21, (2E,4E)-1-[2-Methoxy-4,6-bis(2-propenyloxy)phenyl]-5-phenyl-2,4-pentadien-1-one]
inhibition at 10 µg/mL [4]: 47.7%
IC50 [4]: > 25 µM
IC50 [1, 5]: 75.2 µM

COc1cc(O)cc(O)c1C(=O)/C=C/c1ccccc1Br [Compound I-35, (2E)-3-(2-Bromophenyl)-1-(2,4-dihydroxy-6-methoxyphenyl)-2-propen-1-one]
IC50 (peritoneal macrophages; [6]): 14.6 µM
IC50 [1, 5]: 10.6 µM

COc1cc(O)cc(O)c1C(=O)/C=C/c1ccc(O)cc1 [Compound I-30, (2E)-1-(2,4-Dihydroxy-6-methoxyphenyl)-3-(4-hydroxyphenyl)-2-propen-1-one]
IC50 (peritoneal macrophages; [6]): 21.7 µM
IC50 [1, 5]: 15.7 µM

COc1cc(O)cc(O)c1C(=O)/C=C/c1ccc(F)cc1 [Compound I-40, (2E)-1-(2,4-Dihydroxy-6-methoxyphenyl)-3-(4-fluorophenyl)-2-propen-1-one]
IC50 (peritoneal macrophages; [6]): 28.8 µM
IC50 [1, 5]: 11.8 µM

COc1cc(O)cc(O)c1C(=O)/C=C/c1ccccc1F [Compound I-34, (2E)-1-(2,4-Dihydroxy-6-methoxyphenyl)-3-(2-fluorophenyl)-2-propen-1-one]
IC50 (peritoneal macrophages; [6]): 16 µM
IC50 [1, 5]: 11.8 µM

O=[N+]([O-])c1ccccc1C=NNc1ncnc2sc3c(c12)CCCC3 [II-23]
GI50 in indicated cell line: 3T3 (3T3 cells): >62.5 µg/mL
GI50 in indicated cell line: DU145 (DU145 cells): 36.4 µg/mL (≈ 103 µM)
GI50 in indicated cell line: H460 (H460 cells): 18.7 µg/mL (≈ 52.9 µM)
GI50 in indicated cell line: HT-29 (HT-29 cells): 70.5 µg/mL (≈ 199 µM)
GI50 in indicated cell line: K562 (K562 cells): 61.6 µg/mL (≈ 174 µM)
GI50 in indicated cell line: M-14 (M-14 cells): 58.9 µg/mL (≈ 167 µM)
GI50 in indicated cell line: MCF-7 (MCF-7 cells): 18.4 µg/mL (≈ 52.1 µM)
GI50 in indicated cell line: VERO (VERO cells): >62.5 µg/mL
T. cruzi IC50 Lab A ([4]; Lab A): 1.1 µg/mL
MIC MABA (M. tuberculosis H37Rv): >100 µg/mL
IC50 (peritoneal macrophages): > 100 µM
IC50 [3]: 38.1 µM

N-methylglucamine antimoniate [Glucantime, reference compound]
Mean lesion size (mm) (L. amazonensis; after 4 weeks treatment): 2.1 mm
Mean parasite quantification (per 10^6) in lesion per mg (±SD) (L. amazonensis; after 4 weeks treatment): 0 (0) amastigotes (×10^6)/mg
Mean lesion wt (mg) (±SD) (L. amazonensis; after 4 weeks treatment): 5.6 (±0.4) mg
% Variation of lesion wt (L. amazonensis; after 4 weeks treatment): 91%
% reduction of parasite burden in the lesion (L. amazonensis; after 4 weeks treatment): 100%
Mean lesion size (mm) (L. amazonensis; after 7 weeks treatment): 2.2 mm
Mean parasite quantification (per 10^6) in lesion per mg (±SD) (L. amazonensis; after 7 weeks treatment): 0 (0) amastigotes (×10^6)/mg
Mean lesion wt (mg) (±SD) (L. amazonensis; after 7 weeks treatment): 13.5 (±2.9) mg
% Variation of lesion wt (L. amazonensis; after 7 weeks treatment): 85%
% reduction of parasite burden in the lesion (L. amazonensis; after 7 weeks treatment): 100%
Lesion diameter (L. amazonensis; Glucantime 33 mg/kg/day): 2.2 mm
Reduction of parasite burden After 4 weeks (L. amazonensis; Glucantime 33 mg/kg/day, after 4 weeks): 100%
Reduction of parasite burden After 7 weeks (L. amazonensis; Glucantime 33 mg/kg/day, after 7 weeks): 100%

C=CCOc1cc(OC)c(C(=O)/C=C/c2ccc(O)c(OC)c2)c(OCC=C)c1 [Compound I-18, (2E)-1-[2-Methoxy-4,6-bis(2-propenyloxy)phenyl]-3-(3-methoxy-4-hydroxyphenyl)-2-propen-1-one]
inhibition at 10 µg/mL [4]: 27.9%
IC50 [4]: > 25 µM
IC50 [1, 5]: 107 µM

COc1cc(O)cc(O)c1C(=O)/C=C/c1ccc(C)cc1 [Compound I-41, (2E)-1-(2,4-Dihydroxy-6-methoxyphenyl)-3-(4-methylphenyl)-2-propen-1-one]
IC50 (peritoneal macrophages; [6]): 16.5 µM
IC50 [1, 5]: 7.4 µM

C=CCOc1cc(OC)c(C(=O)/C=C/c2ccc[nH]2)c(OCC=C)c1 [Compound I-22, (2E)-3-(1H-pyrrol-2-yl)-1-[2-methoxy-4,6-bis(2-propenyloxy)phenyl]-2-propen-1-one]
inhibition at 10 µg/mL [4]: 1.25%
IC50 [4]: > 100 µM
IC50 [1, 5]: 94.3 µM

N#Cc1ccc(C=NNc2ncnc3sc4c(c23)CCCC4)cc1 [II-32]
GI50 in indicated cell line: 3T3 (3T3 cells): 50.1 µg/mL (≈ 150 µM)
GI50 in indicated cell line: DU145 (DU145 cells): >62.5 µg/mL
GI50 in indicated cell line: H460 (H460 cells): >62.5 µg/mL
GI50 in indicated cell line: HT-29 (HT-29 cells): >62.5 µg/mL
GI50 in indicated cell line: K562 (K562 cells): >62.5 µg/mL
GI50 in indicated cell line: M-14 (M-14 cells): >62.5 µg/mL
GI50 in indicated cell line: MCF-7 (MCF-7 cells): 33.9 µg/mL (≈ 102 µM)
GI50 in indicated cell line: VERO (VERO cells): >62.5 µg/mL
MIC MABA (M. tuberculosis H37Rv): >100 µg/mL
IC50 (peritoneal macrophages): 53.9 µM
IC50 [3]: 10.8 µM

COc1cc(O)cc(O)c1C(=O)/C=C/c1ccccc1 [Compound I-29, (2E)-1-(2,4-Dihydroxy-6-methoxyphenyl)-3-(phenyl)-2-propen-1-one]
IC50 (peritoneal macrophages; [6]): 27 µM
IC50 [1, 5]: 15.9 µM

C(=N/Nc1ncnc2sc3c(c12)CCCC3)/c1ccncc1 [II-20]
GI50 (3T3 cells): 25.7 µg/mL (≈ 83.1 µM)
GI50 (DU145 cells): 26 µg/mL (≈ 84 µM)
GI50 (H460 cells): 52.4 µg/mL (≈ 169 µM)
GI50 (HT-29 cells): 47.3 µg/mL (≈ 153 µM)
GI50 (K562 cells): 33.8 µg/mL (≈ 109 µM)
GI50 (M-14 cells): > 62.5 µg/mL
GI50 (MCF-7 cells): 26 µg/mL (≈ 84 µM)
GI50 (VERO cells): 38.3 µg/mL (≈ 124 µM)
MIC (M. tuberculosis H37Rv): > 100 µg/mL
IC50 at 48 h [2]: 47.7 µM
Selectivity Index [3]: 0.7
IC50 ([1]; read-out: L. amazonensis IC50): 72 µM

COc1cc(O)cc(O)c1C(=O)/C=C/c1ccc(C(F)(F)F)cc1 [Compound I-32, (2E)-1-(2,4-Dihydroxy-6-methoxyphenyl)-3-[4-(trifluoromethyl)phenyl]-2-propen-1-one]
IC50 (peritoneal macrophages; [6]): 17.1 µM
IC50 [1, 5]: 8.6 µM

COc1cc(/C=C/C(=O)c2c(O)cc(O)cc2OC)cc(OC)c1OC [Compound I-38, (2E)-1-(2,4-Dihydroxy-6-methoxyphenyl)-3-(3,4,5-trimethoxydroxyphenyl)-2-propen-1-one]
IC50 [1, 5]: 9.7 µM

From patent US9061984B2 (University of Louisville Research Foundation, Inc., priority 2008, dated 2015)
